Test results published in article PMC5218480 (PLoS ONE, 2017).

System: MV-4-11 cells
Experiment: Gene expression microarray analysis (Affymetrix PrimeView) and GSEA
Format: cell-based, human
Set-up: RFU PODN (11730768_x_at) / Fold change /veh PODN (11730768_x_at) / RFU LINC00158 (11744669_a_at) / Fold change /veh LINC00158 (11744669_a_at) / RFU DUSP10 (11751237_a_at) / Fold change /veh DUSP10 (11751237_a_at) / RFU ID3 (11757404_x_at) / Fold change /veh ID3 (11757404_x_at) / RFU PLEKHG5 (11737974_s_at) / Fold change /veh PLEKHG5 (11737974_s_at) / RFU LRRC4B (11730491_at) / Fold change /veh LRRC4B (11730491_at) / RFU GIMAP4 (11747438_a_at) / Fold change /veh GIMAP4 (11747438_a_at) / RFU KRT8 (11758183_x_at) / Fold change /veh KRT8 (11758183_x_at) / RFU CNN1 (11734310_a_at) / Fold change /veh CNN1 (11734310_a_at) / RFU VPS37D (11726825_at) / Fold change /veh VPS37D (11726825_at) / RFU C10orf10 (11716522_x_at) / Fold change /veh C10orf10 (11716522_x_at) / RFU KIR2DL2 /// KIR2DL4 /// KIR2DL5A /// KIR2DL5B /// KIR2DS1 /// KIR2DS2 /// KIR2DS3 /// KIR2DS4 /// KIR3DL3 /// KIR3DL3 /// KIR3DS1 (11738374_at) / Fold change /veh KIR2DL2 /// KIR2DL4 /// KIR2DL5A /// KIR2DL5B /// KIR2DS1 /// KIR2DS2 /// KIR2DS3 /// KIR2DS4 /// KIR3DL3 /// KIR3DL3 /// KIR3DS1 (11738374_at) / RFU C1QL1 (11718748_at) / Fold change /veh C1QL1 (11718748_at) / RFU TMPRSS4 (11747572_a_at) / Fold change /veh TMPRSS4 (11747572_a_at) / RFU HAMP (11756126_x_at) / Fold change /veh HAMP (11756126_x_at) / RFU RNFT2 (11725882_a_at) / Fold change /veh RNFT2 (11725882_a_at) / RFU NR4A2 (11747474_a_at) / Fold change /veh NR4A2 (11747474_a_at) / RFU ABCC12 (11746883_a_at) / Fold change /veh ABCC12 (11746883_a_at) / RFU TMEM136 (11760407_x_at) / Fold change /veh TMEM136 (11760407_x_at) / RFU CLDN22 /// WWC2 (11732394_at) / Fold change /veh CLDN22 /// WWC2 (11732394_at) / RFU HLA-DPB1 (11760878_x_at) / Fold change /veh HLA-DPB1 (11760878_x_at) / RFU SPINT1 (11716480_a_at) / Fold change /veh SPINT1 (11716480_a_at) / RFU GAP43 (11754022_s_at) / Fold change /veh GAP43 (11754022_s_at) / RFU A4GNT (11735810_at) / Fold change /veh A4GNT (11735810_at) / RFU PRB3 (11715151_x_at) / Fold change /veh PRB3 (11715151_x_at) / RFU TUBB4B (11761932_at) / Fold change /veh TUBB4B (11761932_at) / RFU CAPN14 (11732068_a_at) / Fold change /veh CAPN14 (11732068_a_at) / RFU TMCC2 (11721928_a_at) / Fold change /veh TMCC2 (11721928_a_at) / RFU IRGQ (11745062_a_at) / Fold change /veh IRGQ (11745062_a_at) / RFU FAM174B (11720279_a_at) / Fold change /veh FAM174B (11720279_a_at) / RFU TMPRSS4 (11748680_a_at) / Fold change /veh TMPRSS4 (11748680_a_at) / RFU FAM212B (11763350_a_at) / Fold change /veh FAM212B (11763350_a_at) / RFU PLEKHG5 (11743358_a_at) / Fold change /veh PLEKHG5 (11743358_a_at) / RFU ZSCAN30 (11745921_a_at) / Fold change /veh ZSCAN30 (11745921_a_at) / RFU CMKLR1 (11741424_a_at) / Fold change /veh CMKLR1 (11741424_a_at) / RFU LOC101060620 /// MAPK8IP1 (11723275_at) / Fold change /veh LOC101060620 /// MAPK8IP1 (11723275_at) / RFU SPTSSB (11747773_x_at) / Fold change /veh SPTSSB (11747773_x_at) / RFU PRSS12 (11739890_at) / Fold change /veh PRSS12 (11739890_at) / RFU BIN1 (11741810_x_at) / Fold change /veh BIN1 (11741810_x_at) / RFU WNT11 (11732464_a_at) / Fold change /veh WNT11 (11732464_a_at) / RFU C10orf10 (11716521_a_at) / Fold change /veh C10orf10 (11716521_a_at) / RFU C5orf56 (11738089_at) / Fold change /veh C5orf56 (11738089_at) / RFU CYB561 (11721691_x_at) / Fold change /veh CYB561 (11721691_x_at) / RFU ANKRD19P (11752326_a_at) / Fold change /veh ANKRD19P (11752326_a_at) / RFU OR2T12 /// OR2T33 /// OR2T8 (11738714_s_at) / Fold change /veh OR2T12 /// OR2T33 /// OR2T8 (11738714_s_at) / RFU VCAN (11748164_a_at) / Fold change /veh VCAN (11748164_a_at) / RFU JSRP1 (11732532_at) / Fold change /veh JSRP1 (11732532_at) / RFU KRTAP10-11 (11738290_x_at) / Fold change /veh KRTAP10-11 (11738290_x_at) / RFU MYO3A (11730013_a_at) / Fold change /veh MYO3A (11730013_a_at) / RFU EBF3 (11725865_a_at) / Fold change /veh EBF3 (11725865_a_at) / RFU CAMK2N1 (11719241_x_at) / Fold change /veh CAMK2N1 (11719241_x_at) / RFU C5orf56 (11738088_a_at) / Fold change /veh C5orf56 (11738088_a_at) / RFU OLFML3 (11715873_a_at) / Fold change /veh OLFML3 (11715873_a_at) / RFU LOC100653217 /// NTM (11731650_a_at) / Fold change /veh LOC100653217 /// NTM (11731650_a_at) / RFU MAPK11 (11762145_a_at) / Fold change /veh MAPK11 (11762145_a_at) / RFU FIZ1 (11724087_x_at) / Fold change /veh FIZ1 (11724087_x_at) / RFU OASL (11726364_x_at) / Fold change /veh OASL (11726364_x_at) / RFU SOX15 (11748057_x_at) / Fold change /veh SOX15 (11748057_x_at) / RFU CD79A (11719716_a_at) / Fold change /veh CD79A (11719716_a_at) / RFU HIST1H1D (11736915_at) / Fold change /veh HIST1H1D (11736915_at) / RFU CASKIN2 (11723855_a_at) / Fold change /veh CASKIN2 (11723855_a_at) / RFU LOC730098 (11760151_x_at) / Fold change /veh LOC730098 (11760151_x_at) / RFU OR4N2 (11742367_at) / Fold change /veh OR4N2 (11742367_at) / RFU PRRT2 (11749266_a_at) / Fold change /veh PRRT2 (11749266_a_at) / RFU SNX32 (11753110_a_at) / Fold change /veh SNX32 (11753110_a_at) / RFU CDHR5 (11726645_a_at) / Fold change /veh CDHR5 (11726645_a_at) / RFU RCAN1 (11760418_a_at) / Fold change /veh RCAN1 (11760418_a_at) / RFU FAM167A (11723789_a_at) / Fold change /veh FAM167A (11723789_a_at) / RFU FAM26E (11764081_at) / Fold change /veh FAM26E (11764081_at) / RFU ISYNA1 (11749810_s_at) / Fold change /veh ISYNA1 (11749810_s_at) / RFU ACY1 (11761880_at) / Fold change /veh ACY1 (11761880_at) / RFU 11764098_at / Fold change /veh 11764098_at / RFU SAMD14 (11745864_x_at) / Fold change /veh SAMD14 (11745864_x_at) / RFU NPB (11741838_a_at) / Fold change /veh NPB (11741838_a_at) / RFU TMPRSS6 (11731388_a_at) / Fold change /veh TMPRSS6 (11731388_a_at) / RFU KRTAP10-2 (11738614_at) / Fold change /veh KRTAP10-2 (11738614_at) / RFU ARHGAP8 /// PRR5-ARHGAP8 (11727945_x_at) / Fold change /veh ARHGAP8 /// PRR5-ARHGAP8 (11727945_x_at) / RFU KRTAP5-7 /// NADSYN1 (11734609_at) / Fold change /veh KRTAP5-7 /// NADSYN1 (11734609_at) / RFU RASL12 (11751679_a_at) / Fold change /veh RASL12 (11751679_a_at) / RFU CDKN2B (11736163_a_at) / Fold change /veh CDKN2B (11736163_a_at) / RFU PRF1 (11729649_at) / Fold change /veh PRF1 (11729649_at) / RFU, ZNF638 /// ZNF638-IT1 / Fold change vs veh, ZNF638 /// ZNF638-IT1 / RFU, PANK3 / Fold change vs veh, PANK3 / RFU, SH3YL1 / Fold change vs veh, SH3YL1 / RFU, ZEB2 / Fold change vs veh, ZEB2 / RFU, NRIP1 / Fold change vs veh, NRIP1 / RFU, PTTG1IP / Fold change vs veh, PTTG1IP / RFU, CAPN2 / Fold change vs veh, CAPN2 / RFU, MED14 / Fold change vs veh, MED14 / RFU, SNORA58 / Fold change vs veh, SNORA58 / RFU, C1orf63 / Fold change vs veh, C1orf63 / RFU, LRRFIP1 / Fold change vs veh, LRRFIP1 / RFU, NDUFAF7 / Fold change vs veh, NDUFAF7 / RFU, SLC12A2 / Fold change vs veh, SLC12A2 / RFU, IBTK / Fold change vs veh, IBTK / RFU, ESF1 / Fold change vs veh, ESF1 / Fold change vs veh, TMEM50B / RFU, TAOK1 / Fold change vs veh, TAOK1 / RFU, ACBD3 / Fold change vs veh, ACBD3 / RFU, TMA16 / Fold change vs veh, TMA16 / RFU, RWDD3 / Fold change vs veh, RWDD3 / RFU, BCAT1 / Fold change vs veh, BCAT1 / RFU, EDEM3 / Fold change vs veh, EDEM3 / RFU, TMEM33 / Fold change vs veh, TMEM33 / RFU, WDR75 / Fold change vs veh, WDR75 / RFU, AHCTF1 / Fold change vs veh, AHCTF1 / RFU, TFRC / Fold change vs veh, TFRC / RFU, ZDHHC17 / Fold change vs veh, ZDHHC17 / RFU, NOM1 / Fold change vs veh, NOM1 / RFU, ARL8B / Fold change vs veh, ARL8B / RFU, ZBTB11 / Fold change vs veh, ZBTB11 / RFU, TAMM41 / Fold change vs veh, TAMM41 / RFU, KIAA1704 /// LOC100996395 / Fold change vs veh, KIAA1704 /// LOC100996395 / RFU, ING1 / Fold change vs veh, ING1 / RFU, TRMT61B / Fold change vs veh, TRMT61B / RFU, FUBP3 / Fold change vs veh, FUBP3 / RFU, TP53 / Fold change vs veh, TP53 / RFU, TNKS2 / Fold change vs veh, TNKS2 / RFU, ZFP14 / Fold change vs veh, ZFP14 / RFU, ACTR2 / Fold change vs veh, ACTR2 / RFU, PPP3R1 / Fold change vs veh, PPP3R1 / RFU, PIK3R1 / Fold change vs veh, PIK3R1 / RFU, HNRNPA1 / Fold change vs veh, HNRNPA1 / RFU, RNF170 / Fold change vs veh, RNF170 / RFU, ZNF28 / Fold change vs veh, ZNF28 / RFU, RNGTT / Fold change vs veh, RNGTT / RFU, OGT / Fold change vs veh, OGT / RFU, BRD1 / Fold change vs veh, BRD1 / RFU, MARS / Fold change vs veh, MARS / RFU, ZNF655 / Fold change vs veh, ZNF655 / RFU, FAHD1 / Fold change vs veh, FAHD1 / RFU, BDP1 / Fold change vs veh, BDP1 / RFU, LRRCC1 / Fold change vs veh, LRRCC1 / RFU, ARID1A / Fold change vs veh, ARID1A / RFU, ZNF146 / Fold change vs veh, ZNF146 / RFU, ZNF330 / Fold change vs veh, ZNF330 / RFU, GPN3 / Fold change vs veh, GPN3 / RFU, C9orf123 / Fold change vs veh, C9orf123 / RFU, N4BP2L2 / Fold change vs veh, N4BP2L2 / RFU, ARFIP1 / Fold change vs veh, ARFIP1 / RFU, FAM179B / Fold change vs veh, FAM179B / RFU, BCL10 / Fold change vs veh, BCL10 / RFU, UHRF1BP1L / Fold change vs veh, UHRF1BP1L / RFU, BET1 / Fold change vs veh, BET1 / RFU, CNOT2 / Fold change vs veh, CNOT2 / RFU, ZNF268 / Fold change vs veh, ZNF268 / Fold change vs veh, ZNF507 / RFU, DGCR2 / Fold change vs veh, DGCR2 / RFU, WDSUB1 / Fold change vs veh, WDSUB1 / Fold change vs veh, HSP90B1 /// MIR3652 / RFU, ADSS / Fold change vs veh, ADSS / RFU, GK / Fold change vs veh, GK / RFU, ZNF148 / Fold change vs veh, ZNF148 / RFU, TAF9 / Fold change vs veh, TAF9 / RFU, SLC1A5 / Fold change vs veh, SLC1A5 / RFU, SLMO2 / Fold change vs veh, SLMO2 / RFU, ABCC4 / Fold change vs veh, ABCC4 / RFU, LOC101060439 /// RAP1B / Fold change vs veh, LOC101060439 /// RAP1B / RFU, RFX7 / Fold change vs veh, RFX7 / RFU, GTPBP10 / Fold change vs veh, GTPBP10 / RFU, CNEP1R1 / Fold change vs veh, CNEP1R1 / RFU, BIVM-ERCC5 /// ERCC5 / Fold change vs veh, BIVM-ERCC5 /// ERCC5 / RFU, ILF3 / Fold change vs veh, ILF3 / RFU 11762660_at / Fold change /veh 11762660_at / RFU VCAN (11757783_s_at) / Fold change /veh VCAN (11757783_s_at) / RFU DDX43 (11728927_at) / Fold change /veh DDX43 (11728927_at) / RFU KRT8 (11758188_x_at) / Fold change /veh KRT8 (11758188_x_at) / RFU NKD1 (11759106_at) / Fold change /veh NKD1 (11759106_at) / RFU SRD5A1 (11742802_a_at) / Fold change /veh SRD5A1 (11742802_a_at) / RFU TPSAB1 /// TPSB2 (11721975_s_at) / Fold change /veh TPSAB1 /// TPSB2 (11721975_s_at) / RFU GSTM3 (11746129_a_at) / Fold change /veh GSTM3 (11746129_a_at) / RFU IL23R (11737362_x_at) / Fold change /veh IL23R (11737362_x_at) / RFU TMEM51 (11727254_a_at) / Fold change /veh TMEM51 (11727254_a_at) / RFU PIWIL2 (11732686_x_at) / Fold change /veh PIWIL2 (11732686_x_at) / RFU ORM1 (11744905_x_at) / Fold change /veh ORM1 (11744905_x_at) / RFU CCDC152 (11743942_at) / Fold change /veh CCDC152 (11743942_at) / RFU ECM1 (11717891_a_at) / Fold change /veh ECM1 (11717891_a_at) / RFU IL23R (11748794_a_at) / Fold change /veh IL23R (11748794_a_at) / RFU TNFAIP8L3 (11732012_x_at) / Fold change /veh TNFAIP8L3 (11732012_x_at) / RFU MBOAT4 (11741988_at) / Fold change /veh MBOAT4 (11741988_at) / RFU 11764193_at / Fold change /veh 11764193_at / RFU TMEM53 (11763286_at) / Fold change /veh TMEM53 (11763286_at) / RFU MAGEB2 (11727129_at) / Fold change /veh MAGEB2 (11727129_at) / RFU TMEM200A (11744735_a_at) / Fold change /veh TMEM200A (11744735_a_at) / RFU CCDC152 (11751479_a_at) / Fold change /veh CCDC152 (11751479_a_at) / RFU FAM211A (11726209_a_at) / Fold change /veh FAM211A (11726209_a_at) / RFU RGS16 (11746705_a_at) / Fold change /veh RGS16 (11746705_a_at) / RFU VCAN (11755009_s_at) / Fold change /veh VCAN (11755009_s_at) / RFU RHOB (11743442_s_at) / Fold change /veh RHOB (11743442_s_at) / RFU RGS16 (11720943_a_at) / Fold change /veh RGS16 (11720943_a_at) / RFU RGS16 (11720944_at) / Fold change /veh RGS16 (11720944_at) / RFU, VPS4B / Fold change vs veh, VPS4B / RFU, CREB1 / Fold change vs veh, CREB1 / RFU, DNAJC13 / Fold change vs veh, DNAJC13 / RFU, GNAQ / Fold change vs veh, GNAQ / RFU, CDK5R1 / Fold change vs veh, CDK5R1 / RFU, ZRANB3 / Fold change vs veh, ZRANB3 / RFU, CUL4A / Fold change vs veh, CUL4A / RFU, CCNY / Fold change vs veh, CCNY / RFU, UFL1 / Fold change vs veh, UFL1 / RFU, COG3 / Fold change vs veh, COG3 / RFU, DIAPH2 / Fold change vs veh, DIAPH2 / RFU, SKA2 / Fold change vs veh, SKA2 / RFU, AFF3 / Fold change vs veh, AFF3 / RFU, LMF1 / Fold change vs veh, LMF1 / RFU, IPO11 / Fold change vs veh, IPO11 / RFU, DFFB / Fold change vs veh, DFFB / RFU, FOXP1 / Fold change vs veh, FOXP1 / RFU, CARD8 / Fold change vs veh, CARD8 / RFU, STRN3 / Fold change vs veh, STRN3 / RFU, ADK / Fold change vs veh, ADK / RFU, RASSF2 / Fold change vs veh, RASSF2 / RFU, WIPF1 / Fold change vs veh, WIPF1 / RFU, LARP1B / Fold change vs veh, LARP1B / RFU, RASA1 / Fold change vs veh, RASA1 / RFU, RB1 / Fold change vs veh, RB1 / RFU, PPFIA1 / Fold change vs veh, PPFIA1 / RFU, MAT2A / Fold change vs veh, MAT2A / RFU, CCT5 / Fold change vs veh, CCT5 / RFU, WDR92 / Fold change vs veh, WDR92 / RFU, CUX1 / Fold change vs veh, CUX1 / RFU, TTC7A / Fold change vs veh, TTC7A / RFU, TMEM135 / Fold change vs veh, TMEM135 / RFU, DEPTOR / Fold change vs veh, DEPTOR / RFU, CPM / Fold change vs veh, CPM / RFU, DNAJB6 / Fold change vs veh, DNAJB6 / RFU, CACNA2D3 / Fold change vs veh, CACNA2D3 / RFU, DTX4 / Fold change vs veh, DTX4 / RFU, TFCP2 / Fold change vs veh, TFCP2 / RFU, GMCL1 /// GMCL1P1 / Fold change vs veh, GMCL1 /// GMCL1P1 / RFU, AEBP2 / Fold change vs veh, AEBP2 / RFU, SNHG1 /// SNORD22 /// SNORD25 /// SNORD26 /// SNORD27 /// SNORD28 /// SNORD29 /// SNORD31 / Fold change vs veh, SNHG1 /// SNORD22 /// SNORD25 /// SNORD26 /// SNORD27 /// SNORD28 /// SNORD29 /// SNORD31 / Fold change (Aza/veh), C12orf56 (ProbeSet 11735607_a_at) / Fold change (ACY-1035/veh), C12orf56 (ProbeSet 11735607_a_at) / Fold change (Aza/veh), FGFR1OP (ProbeSet 11751329_s_at) / Fold change (ACY-1035/veh), FGFR1OP (ProbeSet 11751329_s_at) / Fold change (Aza/veh), VPS36 (ProbeSet 11739960_a_at) / Fold change (ACY-1035/veh), VPS36 (ProbeSet 11739960_a_at) / RFU SYPL1 (11715823_x_at) / Fold change /veh SYPL1 (11715823_x_at) / RFU IGFBP7 (11715501_s_at) / Fold change /veh IGFBP7 (11715501_s_at) / RFU REEP3 (11722064_at) / Fold change /veh REEP3 (11722064_at) / RFU IGLL1 (11728026_x_at) / Fold change /veh IGLL1 (11728026_x_at): dose or concentration left out as unconfirmed
Conditions: ProbeSet 11728879_at; LIST B

## Nc1ncn([C@@H]2O[C@H](CO)[C@@H](O)[C@H]2O)c(=O)n1 [azacitidine]
  RFU, PPP3R1: 331.25 RFU
